Data from US20210393642A1, “COMPOSITION FOR PREVENTING OR TREATING SJOGREN'S SYNDROME” (SAMJIN PHARMACEUTICAL CO., LTD., priority 2018, published 2021).

Assays:
TNF-α = test: Quantitative RT-PCR of mRNA in lacrimal and salivary gland tissues, TNF-α; assay type: in vivo, mice; conditions: N=6
IL-17A [1] = test: Quantification (ELISA) of cytokine IL-17A in plasma; assay type: in vivo, mice; conditions: versus control, N=3, FIG. 5
Excerpt: (§1) As markers of Sjogren's syndrome, anti-SSA/Ro (Signosis, #EA-5202, US) and anti-SSB/La (Signosis, #EA-5204, US), which are autoantibodies based on RNP particles, and interleukin-17A cytokine (Signosis, #EA-2516, US) which is involved in the onset of autoimmune diseases, were quantified by Enzyme-linked ImmunoSorbent Assay (ELISA) in order to determine the secretion and production of these markers in serum.

IL-21 = test: Quantitative RT-PCR of mRNA in lacrimal and salivary gland tissues, IL-21; assay type: in vivo, mice; conditions: N=6
IL-17A [2] = test: Protein expression in lacrimal and salivary gland tissues (immunoblotting), IL-17A; assay type: in vivo, mice; conditions: dose of 100 mg/kg as printed; compared to control group; FIG. 3
Method: (§2) The lacrimal gland and salivary gland tissues of the test animals were isolated, placed in PBS, and homogenized on ice. 1 ml of RIPA lysis buffer (50 mM Tris-Cl pH7.4, 150 mM NaCl, 1 mM EDTA, 1% Triton X-100, 0.1% SDS, 1% sodium deoxycholate, 0.5 mM phenylmethylsulfonyl fluoride, 2 μg/ml leupeptin, 2 μg/ml aprotinin, 10 mM NaF, and 1 mM sodium orthovanadate) was added to each homogenized tissue which was then kept on ice for 5 minutes. Each tissue solution was then centrifuged (at 13000 rpm for 20 mins), and only the supernatant was collected, and then protein correction was performed. Samples were incubated with anti-Akt (1:400) and anti-interleukin 17A (1:200) antibodies and subjected to immunoprecipitation (IP) (overnight), followed by sampling. Each of the samples was subjected to SDS-PAGE and transferred to polyvinylidene fluoride (PVDF) membranes. Then, the Akt-IP-samples were incubated with phospho-Akt (S473) (diluted at 1:100,000 in blocking buffer (TBS+Tween20)+0.1% skim milk) at 4° C. overnight, and the IL-17A-IP-samples were incubated with IL-17A primary antibody (diluted at 1:100,000 in blocking buffer (TBS+Tween20)+0.1% skim milk) at 4° C. overnight. Next, the samples were incubated with HRP-conjugated secondary antibody, and then protein bands were visualized with ECL solution in the dark and quantified by exposure to X-ray films.

p-AKT = test: Protein expression in lacrimal and salivary gland tissues (immunoblotting), p-AKT; assay type: in vivo, mice; conditions: versus control, N=3, FIG. 3
Method: as §2

IL-13 = test: Quantitative RT-PCR of mRNA in lacrimal and salivary gland tissues, IL-13; assay type: in vivo, mice; conditions: N=6
IL-22 = test: Quantitative RT-PCR of mRNA in lacrimal and salivary gland tissues, IL-22; assay type: in vivo, mice; conditions: N=6
IL-2 = test: Quantitative RT-PCR of mRNA in lacrimal and salivary gland tissues, IL-2; assay type: in vivo, mice; conditions: N=6, FIGS. 4a, 4b
[3] = system: disease model of Sjogren's syndrome (Nfkbiz^−/− or IkB-ξ-deficient mice, C57BL/6); test: Tear production measurement (Schirmer test, phenol red thread); assay type: in vivo; conditions: oral, 80 mg/kg b.i.d, 5 weeks; versus control (Ctrl) group; N=11; FIG. 1
Method: Hereinafter, experiments for evaluating the anti-inflammatory effect and tissue regeneration effect of oral administration of the composition according to one embodiment of the present invention by using a disease model of Sjogren's syndrome (Nfkbiz^−/− or IkB-ξ-deficient mice, C57BL/6) will be described in detail.
Tear production was measured using a phenol red thread (Zone-Quick; Oasis, Glendora, Calif.) 1 minute after animal anesthesia. One end of the phenol red thread was placed against the lower eyelid of the lateral canthus of the animal eye and left to stand for 60 seconds. After the thread was soaked with tear by the capillary phenomenon, the length (mm) of the thread whose color changed was measured. When the amount of tear secretion decreases, dry eye caused by Sjogren syndrome symptoms is promoted. Thus, it was determined that the greater the amount of tear secretion, the greater the effect of the test substance.

FLT3L = test: Quantitative RT-PCR of mRNA in lacrimal and salivary gland tissues, FLT3L; assay type: in vivo, mice; conditions: N=6
CXCR5 = test: Quantitative RT-PCR of mRNA in lacrimal and salivary gland tissues, CXCR5; assay type: in vivo, mice; conditions: N=6
interferon-g = test: Quantitative RT-PCR of mRNA in lacrimal and salivary gland tissues, interferon-g; assay type: in vivo, mice; conditions: N=6
IL-6 = test: Quantitative RT-PCR of mRNA in lacrimal and salivary gland tissues, IL-6; assay type: in vivo, mice; conditions: N=6
IL-17A [4] = test: Quantitative RT-PCR of mRNA in lacrimal and salivary gland tissues, IL-17A; assay type: in vivo, mice; conditions: N=6
IL-18 = test: Quantitative RT-PCR of mRNA in lacrimal and salivary gland tissues, IL-18; assay type: in vivo, mice; conditions: N=6
anti-SSB/La = test: Quantification (ELISA) of autoantibody anti-SSB/La in plasma; assay type: in vivo, mice
Excerpt: as §1

IL-12 = test: Quantitative RT-PCR of mRNA in lacrimal and salivary gland tissues, IL-12; assay type: in vivo, mice; conditions: N=6
[5] = system: disease model of Sjogren's syndrome (Nfkbiz^−/− or IkB-ξ-deficient mice, C57BL/6); test: Analysis of inflammatory phenotypes in animals (disease scores); assay type: in vivo; conditions: compared to control group, from 2 weeks after administration; N=11; FIG. 7
Excerpt: The degree of inflammation in the animal model was scored according to the following criteria and analyzed.
2: eyes with discharge that were difficult to open
3: periocular skin erosion
4: inflammation reaching perioral skin
5: erosion and loss of hair in whole face.

IFN-α = test: Quantitative RT-PCR of mRNA in lacrimal and salivary gland tissues, IFN-α; assay type: in vivo, mice; conditions: N=6
anti-SSA/Ro = test: Quantification (ELISA) of autoantibody anti-SSA/Ro in plasma; assay type: in vivo, mice
Excerpt: as §1

BAFF = test: Quantitative RT-PCR of mRNA in lacrimal and salivary gland tissues, BAFF; assay type: in vivo, mice; conditions: N=6
CXCL13 = test: Quantitative RT-PCR of mRNA in lacrimal and salivary gland tissues, CXCL13; assay type: in vivo, mice; conditions: N=6
[6] = IkB-ξ-deficient male mice, 80 mg/kg, n = 3, vehicle = 100.0

**Q.** What does the source list for O=C(NC(Cc1cc(=O)[nH]c2ccccc12)C(=O)OCCN1CCOCC1)c1ccc(Cl)cc1.O=C(O)CC(=O)O (stereo not drawn) [SA001, 2-(morpholin-4-yl)ethyl 2-(4-chlorobenzoylamino)-3-(2-oxo-1,2-dihydroquinolin-4-yl)propionate malonate]?
**A.** TNF-α mRNA, decrease compared with control (TNF-α; lacrimal glands): 1.6 fold; TNF-α mRNA, decrease compared with control (TNF-α; salivary glands): 2.2 fold; IL-17A in plasma (IL-17A [1]): decreased; IL-21 mRNA, decrease compared with control (IL-21; lacrimal glands): 1.6 fold; IL-21 mRNA, decrease compared with control (IL-21; salivary glands): 20 fold; protein expression of IL-17A in the lacrimal gland and salivary gland tissues (IL-17A [2]): significantly decreased; expression of p-AKT (activated form of Akt) (p-AKT): significantly increased; IL-13 mRNA, decrease compared with control (IL-13; lacrimal glands): 2 fold; IL-13 mRNA, decrease compared with control (IL-13; salivary glands): 10 fold; IL-22 mRNA, decrease compared with control (IL-22; lacrimal glands): 1.7 fold; IL-22 mRNA, decrease compared with control (IL-22; salivary glands): 1.6 fold; IL-2 mRNA, decrease compared with control (IL-2; lacrimal glands): 4.5 fold; IL-2 mRNA, decrease compared with control (IL-2; salivary glands): 1.3 fold; tear production [3]: significantly increased; FLT3L mRNA, decrease compared with control (FLT3L; lacrimal glands): 2.5 fold; FLT3L mRNA, decrease compared with control (FLT3L; salivary glands): 13 fold; CXCR5 mRNA, decrease compared with control (CXCR5; lacrimal glands): not significant; CXCR5 mRNA, decrease compared with control (CXCR5; salivary glands): 2.5 fold; interferon-g mRNA, decrease compared with control (interferon-g; lacrimal glands): 1.3 fold; interferon-g mRNA, decrease compared with control (interferon-g; salivary glands): 1.3 fold; IL-6 mRNA, decrease compared with control (IL-6; lacrimal glands): 2 fold; IL-6 mRNA, decrease compared with control (IL-6; salivary glands): 2.5 fold; IL-17A mRNA, decrease compared with control (IL-17A [4]; lacrimal glands): 2.8 fold; IL-17A mRNA, decrease compared with control (IL-17A [4]; salivary glands): 3.3 fold; IL-18 mRNA, decrease compared with control (IL-18; lacrimal glands): not significant; IL-18 mRNA, decrease compared with control (IL-18; salivary glands): 1.6 fold; SSB/La, No. (%) (anti-SSB/La; [6]): 67.9 ± 12.4%; anti-SSB in plasma, decrease compared to control group (anti-SSB/La; N=3, FIG. 5): 30%; IL-12 mRNA, decrease compared with control (IL-12; lacrimal glands): 10 fold; IL-12 mRNA, decrease compared with control (IL-12; salivary glands): not significant; onset of the disease (disease score, inflammatory phenotype on five-point scale) [5]: significantly slowed; IFN-α mRNA, decrease compared with control (IFN-α; lacrimal glands): 1.6 fold; IFN-α mRNA, decrease compared with control (IFN-α; salivary glands): 40 fold; SSA/Ro, No. (%) (anti-SSA/Ro; [6]): 61.0 ± 8.7%; anti-SSA in plasma, decrease compared to control group (anti-SSA/Ro; N=3, FIG. 5): 40%; BAFF mRNA, decrease compared with control (BAFF; lacrimal glands): 1.6 fold; BAFF mRNA, decrease compared with control (BAFF; salivary glands): not significant; CXCL13 mRNA, decrease compared with control (CXCL13; lacrimal glands): 2.5 fold; CXCL13 mRNA, decrease compared with control (CXCL13; salivary glands): 5 fold
